{"source": "patent US11968990B2", "about": "“Creamer comprising vegetable lipids and allulose” (CJ CHEILJEDANG CORPORATION, priority 2016, dated 2024)", "key": {"[1]": {"experiment": "Body weight of C57BL/6J mice fed creamer-containing high fat diet with allulose for 8 weeks", "format": "in vivo", "conditions": "for Body weight: HFD + creamer + 5 wt % allulose (PRA), mean ± SE, in g (unit assumed)", "text": "(§1) 16 C57BL/6J mice (male, 4-week-old) were purchased from the Jackson Laboratory (USA) and used. The mice were allowed to adapt to the breeding environment with the lab-chow diet (Purina Co., USA) for 4 weeks. Then, the mice were divided, by using the randomized block design, into a negative control group (PR: 8 mice), in which allulose was not fed, and an experimental group (PRA: 8 mice), in which allulose was fed, and the mice were fed with diet for 8 weeks.\nFor the diet of the negative control group, AIN-76 diet and HFD were applied, in which creamer [“Prima”, Dongsuh Foods Corporation, Korea; raw materials: 30-38 wt % of hydrogenated vegetable lipid (hydrogenated coconut oil, hydrogenated palm oil), starch syrup (including maltose), sodium caseinate, potassium phosphate dibasic, calcium phosphate tribasic] was used as the vegetable lipid. For the diet of the experimental group, 5 wt % of sugar among the components of the diet of the negative control group were replaced with allulose (crystal allulose, 98 wt % or higher of allulose based on dry solid content, CJ Cheiljedang) and used (Table 1). All animal experiments were conducted with the approval of the Ethical Commission for Animal Experimentation, Kyungpook National University (Approval No.: KNU-2013-18).\nPair feeding was performed based on the experimental group so as to feed the same level of iso-energetic diet, and thereby the effect of calorie reduction by allulose was excluded. The diet was refrigerated at 4° C. during the breeding period. The mice were bred in individual cages under constant temperature (25±2° C.), constant humidity (50±5%), and dark-light cycles at 12 hour intervals.\nDietary intake was measured at constant time every day, and body weight was measured at constant time every week."}, "[2]": {"experiment": "Fecal lipid excretion in C57BL/6J mice fed creamer-containing high fat diet with allulose for 8 weeks", "format": "in vivo", "text": "as §1\nFor the diet of the negative control group, AIN-76 diet and HFD were applied, in which creamer [“Prima”, Dongsuh Foods Corporation, Korea; raw materials: 30-38 wt % of hydrogenated vegetable lipid (hydrogenated coconut oil, hydrogenated palm oil), starch syrup (including maltose), sodium caseinate, potassium phosphate dibasic, calcium phosphate tribasic] was used as the vegetable lipid. […]\nAmong them, 200 μL each were collected for the measurement of cholesterol and free fatty acids and dried again under nitrogen gas, and those for the measurement of neutral lipid and total cholesterol were dissolved in 500 μL of ethanol. […] At the time of quantification of total cholesterol and neutral lipid, 3 mM cholic acid (sodium salt) as an emulsifier and 0.5% Triton X-100 (for removal of turbidity that occurs at the time of color development) were mixed and used.\nFor the measurement of total cholesterol, 10 μL of the solution dissolved in ethanol (500 μL) and the emulsifier (690 μL) were mixed, and then 800 μL of a test solution (Asan Pharmaceutical kit) for measurement applying the enzyme method of Allain et al. (1974) was mixed. For quantification of both in forms of free cholesterol (FC) and cholesterol ester (CE), CE was converted to FC and fatty acid by cholesterol esterase. […] The obtained product and H2O2 as a substrate were reacted with peroxidase, phenol, and 4-amino-antipyrine to obtain a red coloring material, and then the absorbance was measured at 500 nm. The measured value was quantified by comparing with the cholesterol standard curve. […]"}, "[3]": {"conditions": "experimental group (PRA) compared to negative control group (PR)"}}, "data": [{"compound": "O=C(CO)C(O)C(O)C(O)CO", "note": "[allulose, Allulose (D-psicose)]", "values": [{"measurement": "Body weight", "setting": "[1]; 0 week of diet", "value": "21.47 ± 0.50"}, {"measurement": "Body weight", "setting": "[1]; 8th week of diet", "value": "27.41 ± 0.48"}, {"measurement": "Inhibitory effect against weight gain", "setting": "[1]; experimental group (PRA) vs negative control (PR), from 1st week of diet, 8 weeks", "value": "significantly inhibited"}, {"measurement": "Excretion of lipid as feces", "setting": "[2]; allulose ingested along with the vegetable lipid in creamer", "value": "promoted"}, {"measurement": "Amount of free fatty acids in the feces vs negative control", "setting": "[2]; [3]", "value": "significantly increased"}, {"measurement": "Amount of triglycerides in the feces vs negative control", "setting": "[2]; [3]", "value": "significantly increased"}]}]}
